From patent US7122519B2, “Didemnin analogs and fragments and methods of making and using them” (priority 2000, dated 2006)

What was measured:
protein biosynthesis = test: inhibition of protein biosynthesis; assay type: biochemical; conditions: concentration of compound; read-out: Protein Synthesis (inhibition of protein biosynthesis)
Source text: (§1) Initial results are shown in Table 2 for inhibition of protein biosynthesis (column 1), cytotoxicity (column 2), and anti-tumor activity (column 3) of tamandarin A, as compared to the related anti-tumor compound didemnin B. The results in Table 2 are given in units of concentration of the selected compound.

tumor = test: anti-tumor activity (Assay Mean); assay type: cell-based
Source text: as §1

[1] = test system: NCI-60 60 tumor cell line panel; test: cytotoxicity, NCI-60 tumor cell line panel mean; assay type: cell-based
Description: as §1
As used herein, “GI50” refers to the dose of a compound which is capable of producing 50% inhibition of cell growth. GI50 is assessed by comparing growth of cells to which a compound has been administered with growth of the same cells to which the compound has not been administered.
As used herein, “LC50” refers to the dose of a compound which is capable of producing 50% lethality in cells. LC50 is assessed by comparing death of cells in a population of cells to which a compound has been administered with the death of cells in a population of the same cells to which the compound has not been administered.
“NCI-60” refers to a 60 tumor cell line panel which from the National Cancer Institute (NCI, Frederick, MD). “NCI-60 Mean” is the average GI50 or LC50 for the panel treated with the selected compound.

pancreatic carcinoma = conditions: cited from earlier work

Compound: tamandarin A
- IC50 (protein biosynthesis): 1.3 µM
- Anti-tumor activity (Assay Mean) (tumor): 1.31 nM
- cytotoxicity compared with didemnin B ([1]; in vitro, assays of Table 2): significantly less cytotoxic
- LC50 ([1]; mean over 60 tumor cell line panel, 50% lethality in cells): 4.8 µM
- in vitro activity against pancreatic carcinoma compared with didemnin B (pancreatic carcinoma): greater in vitro activity

Compound: CC[C@H](C)[C@H]1NC(=O)[C@@H](NC(=O)[C@@H](CC(C)C)N(C)C(=O)[C@@H]2CCCN2C(=O)C(C)O)[C@@H](C)OC(=O)[C@H](Cc2ccc(OC)cc2)N(C)C(=O)[C@@H]2CCCN2C(=O)[C@H](CC(C)C)NC(=O)[C@@H](C)C(=O)[C@H](C(C)C)OC(=O)C[C@@H]1O (stereo partly shown) [Didemnin B, reference compound]
- IC50 (protein biosynthesis): 4 µM
- Anti-tumor activity (Assay Mean) (tumor): 1.58 nM
